# Experimental data taken from patent US20260167715A1, “PD-1+CD38HICD8+ KILLER T CELLS AND USES THEREOF” (GEORGETOWN UNIVERSITY, priority 2022, published 2026).
# Residues, ends and D or L forms follow the SMILES beside them. *: point of attachment. Cbz = O=C(OCc1ccccc1)*; CH2Cl = ClC*
# B1: rCD31: recombinant CD31 protein (3628-PC-050, R&D) (protein)
# chain: EENSFTINSIHMESLPSWEVMNGQQLTLECLVDISTTSKSRSQHRVLFYKDDAMVYNVTSREHTESYVIPQARVFHSGKYKCTVMLNNKEKTTIEYEVKVHGVSKPKVTLDKKEVTEGGVVTVNCSLQEEKPPIFFKIEKLEVGTKFVKRRIDKTSNENFVLMEFPIEAQDHVLVFRCQAGILSGFKLQESEPIRSEYVTVQESFSTPKFEIKPPGMIIEGDQLHIRCIVQVTHLVQEFTEIIIQKDKAIVATSKQSSEAVYSVMAMVEYSGHYTCKVESNRISKASSIMVNITELFPKPKLEFSSSRLDQGELLDLSCSVSGTPVANFTIQKEETVLSQYQNFSKIAEESDSGEYSCTAGIGKVVKRSGLVPIQVCEMLSKPSIFHDAKSEIIKGHAIGISCQSENGTAPITYHLMKAKSDFQTLEVTSNDPATFTDKPTRDMEYQCRADNCHSHPAVFSEILRVRVIAPVDEVVISILSSNEVQSGSEMVLRCSVKEGTSPITFQFYKEKEDRPFHQAVVNDTQAFWHNKQASKKQEGQYYCTASNRASSMRTSPRSSTLAVRVFLAPWKK
# What was measured:
# T^frat cells [1] = experiment: Gzm B levels in T^frat cells after NAD repletion or SIRT1 activator; assay type: cell-based, mouse; conditions: NAD (1 mM) or SIRT1 activator (1 or 2 μM), 24 h
# Experimental: (§1) PD1^+CD38^hi and Teff CD8 T cells were generated by our previously reported method^2. In brief, MACS purified (>90%) OT1-CD8 (CD45.1) T cells from mouse spleen were activated either with low-affinity OVA-V peptide or with high-affinity OVA peptide ([…]) in T cell medium supplemented with 30 international units (IU) of IL-2 for 48 hours followed by FACS purification of PD1^+CD38^hi and PD1^+CD38^lo T cells respectively. Various cell surface and intracellular markers as well as level of pro- and anti-inflammatory cytokines, and cytolytic molecules were analyzed by flow cytometry as explained in the next section. In some experiments, CD38 was KD using siRNA for 24 h prior to various marker analysis. Furthermore, in a few experiments, either NAD (1 mM) or SIRT1 activator (1 or 2 μM) were added to the Tfrat cells for 24 h and levels of Gzm B were measured in these cells and in Teff cells by flow cytometry. To determine the role of CD38:CD31 interaction and signaling in Gzm B degranulation, Tfrat cells were cultured with rCD31 (1 or 5 μg) with or without PI3K or ERK1/2 inhibitors (100 nM). After 24 h, degranulation of Gzm B in T^frat cells was measured by CD1071 staining and levels of various signaling molecules by flow cytometry.
# [2] = tested on: target pMel-1 CD8 T cells; experiment: Co-culture (in vitro cell killing) of PD1+CD38hi or Teff CD8 T cells with target pMel-1 CD8 T cells; annexin V, caspase3/7, live/dead staining; assay type: cell-based; conditions: co-incubation of T^frat and target cells with blocking antibody or inhibitor
# Description: For the flow cytometry analysis of lymphocytes of mouse and human origin, 1-2×10^6 cells per sample were stained with the LIVE/DEAD fixable near-IR dead cell stain kit (Invitrogen; catalog no. L10119) followed by fixation and permeabilization. All surface and intracellular markers were stained at the same time in fix and per buffer as per manufacturer's recommendations. For IFN-7 and Gzm B staining, the BD Biosciences Cytofix/Cytoperm (catalog no. 51-2090KZ) and BD Biosciences Perm/Wash (catalog no. 51-2091KZ) buffer sets were used according to the manufacturer's instructions. In a few experiments, variously treated cells were processed for annexin V staining to check the extent of apoptosis. For this, collected cells were stained for annexin V in annexin binding buffer (ABB) (BD Biosciences) for 30 minutes at 4° C. […]
# PD1^+CD38^hi and Teff CD8 T cells were co-cultured overnight with FACS-sorted Thy1.1 target pMel-1 CD8^+ T cells (killer to target cell ratio 1:1) that were activated with gp100 peptide (1 μM per 10^6 cells per mL). […] In addition to the annexin V staining, Gzm B levels in the pMel-1 target CD8 or CD4 T cells and […] levels in the Tfrat cells after their co-culture in the presence or absence of anti-CD38/CD31 were measured by flow cytometry. […] Viability of target cells was assessed by FACS analysis using fixable Live/Dead stain.
# T^frat cells [3] = experiment: Degranulation (CD107a) in T^frat cells cultured with rCD31 with or without PI3K or ERK1/2 inhibitors; assay type: cell-based, mouse; conditions: rCD31 with inhibitor (100 nM), 24 h
# [4] = tested on: Zap70, PI3K, RAC, and ERK in T^frat cells; experiment: Signaling molecules in T^frat cells incubated with rCD31 (Western blotting); assay type: cell-based, mouse; conditions: incubation with rCD31 (1 or 5 μg)
# Experimental: as §1, with “After 24 h, degranulation of Gzm B in T^frat cells was measured by CD1071 staining and levels of various signaling molecules by flow cytometry.” left out
molecule,measurement,setting,value
NC(=O)c1ccc[n+]([C@@H]2O[C@H](COP(=O)([O-])OP(=O)(O)OC[C@H]3O[C@@H](n4cnc5c(N)ncnc54)[C@H](O)[C@@H]3O)[C@@H](O)[C@H]2O)c1 [NAD],expression of Gzm B in T^frat,T^frat cells [1],decrease in the expression of Gzm B
Cl.O=C(Nc1ccccc1-c1cn2c(CN3CCNCC3)csc2n1)c1cnc2ccccc2n1 [SRT1720 HCl],expression of Gzm B in T^frat,T^frat cells [1],decrease in the expression of Gzm B
C[C@H](NC(=O)OCc1ccccc1)C(=O)N[C@@H](C)C(=O)N[C@@H](CC(=O)O)C(=O)CCl [Z-AAD-CMK] (Cbz-Ala-Ala-Asp-CH2Cl),T^frat-mediated apoptosis in target pMel-1 CD8 T cells in presence of the agent (annexin V),[2],fully abrogated
"O=C(Nc1ccc2[nH]nc(-c3ccncc3)c2c1)[C@@H]1CCN(CC(=O)N2CCN(c3ccc(-c4ncccn4)cc3)CC2)C1 [ERK inhibitor, SCH772984]","degranulation of Gzm B resulting from CD38:CD31 engagement, measured by CD107a level",T^frat cells [3],inhibited
B1,"expression of phosphorylated Zap70, PI3K, RAC, and ERK in T^frat cells",[4],"increase in the expression of phosphorylated Zap70, PI3K, RAC, and ERK"
